# According to patent US4952580A, “Pesticidal polyhaloalkene derivatives” (priority 1988, dated 1990):
# Read-outs that look alike come from different tables or passages of the source.
# Experiments:
# root-knot nematode [1] = assay: Systemic Activity (basipetal, foliar spray) against root-knot nematode; format: in vivo, Meloidogyne incognita; details: 336 h, read-out: Percent Control; for pest or weed control at 2000 ppm: Table 8, rate 2000 ppm
# Summary of the method: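 Tomato plants at 4-6 true leaves were foliar-sprayed with compound in water/acetone, soil covered, then kept 3 days at 25° C before soil inoculation with nematodes. After about two weeks, root galling versus untreated controls was scored as Knot Index and Percent Control.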
# [2] = system: root-knot nematode (Meloidogyne incognita); assay: Initial Root-Knot Nematicidal Activity; format: in vivo; details: 336 h, read-out: Percent Control; for pest or weed control at 0.078 ppm: Table 2, Application Rate 0.078 ppm; for pest or weed control at 0.156 ppm: Table 2, Application Rate 0.156 ppm; for pest or weed control at 2.5 ppm: Table 2, Application Rate 2.5 ppm; for pest or weed control at 0.312 ppm: Table 2, Application Rate 0.312 ppm
# Summary of the method: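 Compound incorporated into Meloidogyne incognita-infested soil at 10 ppm to 0.078 ppm, then planted with tomato or cucumber seedlings. Root galling scored two weeks after planting as a knot index and converted to percent control, given as averages.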
# root-knot nematode [3] = assay: Residual Root-Knot Nematicidal Activity; format: in vivo, Meloidogyne incognita; details: Table 3a, 5% dust, 5 ppm, read-out: Percent Control
# Summary of the method: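 Soil received 5% dust formulation at 5 and 10 ppm test compound and was held in a greenhouse, then infested with root-knot nematode eggs and larvae at 1, 2 and 4 weeks post-treatment. Cucumber or tomato seedlings were planted and scored about two weeks after infestation for Knot Index and Percent Control.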
# cyst nematode = assay: Cyst Nematode Test; format: in vivo; details: Table 6; rate 5 ppm; read-out: Percent Control
# Procedure: Compounds of this invention were tested as follows for nematicidal and anthelmintic activity as dust formulations (initial and residual activity) and as acetone/water formulations (systemic activity). The formulations are described above.
# The procedures was substantially the same as described in the stunt nematode test except soybean seedlings were used. "Percent Control" (Table 6 appended) is as defined in the stunt nematode test results.
# root-knot nematode [4] = assay: Soil Mobility against root-knot nematode; format: in vivo, Meloidogyne incognita; details: 336 h, Table 7a, 5% dust, 5 ppm, read-out: Percent Control
# Summary of the method: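 Soil mobility of the nematicidal test material was evaluated by placing treated, nematode-infested soil in 8 cm plastic pots stacked above two or more pots of untreated infested soil, each containing a 10 cm^3 sand layer and filter paper discs. Fifteen cm of water was dripped through, pots drained 16-18 hours, then were planted with cucumber or tomato seedlings and scored for Percent Control.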
# [5] = system: cucumber or tomato seedling; assay: Phytotoxicity noted in Soil Mobility test; format: in vivo; set-up: key: *: Some phytotoxicity; details: Table 7a, 5% dust, 5 ppm
# Text: The ability of nematicidal compounds of the invention to move through nematode-infested soil […] infested soil, and subsequently eluting the soil with 15 cm of water (equivalent to 15 cm of rainfall) into a series of two or more pots of untreated, but nematode-infested, soil. Specifically, the pots were 8 cm diameter plastic pots containing a 10 cm^3 layer of sand over a coarse grade filter paper disc. Sufficient soil was placed over the sand to fill the pots, and a second filter paper disc was placed over the soil. Each test compound-treated pot was nested over a series of two or more pots containing untreated, but nematode-infested soil, also containing sand filter paper discs as described for the treated soil pots. Fifteen cm of water was slowly dripped into the top pots and the pots were allowed to drain for 16-18 hours to remove excess water. The top filter of each pot was then removed and the pots were planted with a cucumber or tomato seedling. […] "Knot Index" and "Percent Control" are as defined in the initial root-knot nematode tests above.
# lesion nematode = assay: Lesion Nematode Test; format: in vivo; details: read-out: Percent Control
# Summary of the method: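 Run as the stunt nematode test but on pea seedlings; compounds applied as dust formulations (initial and residual activity) or acetone/water formulations (systemic activity), with untreated samples as reference. Percent control derived by formula.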
# stunt nematode = assay: Stunt Nematode Test; format: in vivo
# Caenorhabditis elegans = assay: C. Elegans Nematode Screening Test and Evaluation (in-vitro); details: Caenorhabditis elegans
# Summary of the method: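 Worms (10-15 per well) in buffer with E. coli food, ampicillin and mycostatin; compound added in DMSO, 2-3 replicates per rate. Incubated 5-6 days at 20° C. Population development scored against untreated wells, noting effects such as reduced egg hatch or molting disruption.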
# corn seedling = assay: Phytotoxicity noted in Stunt Nematode Test; format: in vivo; set-up: key: *: Some phytotoxicity; details: Table 4a; rate 5 ppm
# Text: The procedure was substantially the same as in the initial root-knot nematode tests described above except that rates of application of formulated compound were 2.5 and 5 ppm in soil containing a corn seedling, with subsequent inoculation of the soil with combined larvae and adult stunt nematodes. The samples were evaulated approximately four weeks after infestation. The results (Tables 4 and 4a appended) indicate good control at the test application rates as compared with untreated samples where no control was observed. "Percent control" means the difference between average population counts between untreated and treated samples, divided by average population count of untreated sample, multiplied by 100.
# [6] = Table 2, Application Rate 0.625 ppm
# [7] = Table 2, Application Rate 1.25 ppm
# [8] = 168 h, inoculation 1 week post-treatment
# [9] = 336 h, inoculation 2 weeks post-treatment
# [10] = 672 h, inoculation 4 weeks post-treatment
# [11] = 672 h, Table 4a; rate 5 ppm; read-out: Percent Control
Compound,pest or weed control at 0.078 ppm [2] [%],pest or weed control at 0.156 ppm [2] [%],"pest or weed control at 0.625 ppm [2, 6] [%]","pest or weed control at 1.25 ppm [2, 7] [%]",pest or weed control at 2.5 ppm [2] [%],pest or weed control at 5 ppm (root-knot nematode [3]; [8]) [%],pest or weed control at 5 ppm (root-knot nematode [3]; [9]) [%],pest or weed control at 5 ppm (root-knot nematode [3]; [10]) [%],pest or weed control at 5 ppm (cyst nematode) [%],pest or weed control at 5 ppm (root-knot nematode [4]; BOTTOM container) [%],pest or weed control at 5 ppm (root-knot nematode [4]; MIDDLE container) [%],pest or weed control at 5 ppm (root-knot nematode [4]; TOP container) [%],Some phytotoxicity ([5]; TOP container),"pest or weed control at 2.5 ppm (lesion nematode; Table 5, rate 2.5 ppm) [%]",pest or weed control at 5 ppm (stunt nematode; [11]) [%],pest or weed control at 0.312 ppm [2] [%],also measured
"CCCc1nnc(SCCC(F)=C(F)F)o1 [Compound 41, 2-propyl-5-(3,4,4-trifluoro-3-butenylthio)-1,3,4-oxadiazole]",31,84,98,100,100,97,63,6,0,8,95,97,*,64,29,,pest or weed control at 2000 ppm (root-knot nematode [1]): 17%; Some phytotoxicity ([5]; MIDDLE container): *
"FC(F)=C(F)CCSc1nnc(-c2cccc(Cl)c2)o1 [Compound 48, 2-(3-chlorophenyl)-5-(3,4,4-trifluoro-3-butenylthio)-1,3,4-oxadiazole]",6,38,78,,98,97,97,69,86,,,,*,85,82,64,"inhibition at 5 ppm (Caenorhabditis elegans; Table 9 screen, 5 ppm, read-out: Percent Inhibition of Reproduction): 100%; mortality at 5 ppm (Caenorhabditis elegans; Table 9 screen, 5 ppm, read-out: Percent Mortality): 88%; mortality at 5 ppm (Caenorhabditis elegans; Table 10 evaluation, 5 ppm, read-out: Percent Mortality): 100%; inhibition at 1.25 ppm (Caenorhabditis elegans; Table 10 evaluation, 1.25 ppm, read-out: Percent Inhibition of Reproduction): 17%; mortality at 1.25 ppm (Caenorhabditis elegans; Table 10 evaluation, 1.25 ppm, read-out: Percent Mortality): 0%; inhibition at 2.5 ppm (Caenorhabditis elegans; Table 10 evaluation, 2.5 ppm, read-out: Percent Inhibition of Reproduction): 25%; mortality at 2.5 ppm (Caenorhabditis elegans; Table 10 evaluation, 2.5 ppm, read-out: Percent Mortality): 0%; pest or weed control at 2500 ppm (root-knot nematode [1]; Table 8, rate 2500 ppm): 33%; pest or weed control at 2000 ppm (root-knot nematode [1]; foliar): 50%; pest or weed control at 0.625 ppm [2]: 87%; pest or weed control at 1.25 ppm [2]: 95%"
"FC(F)=C(F)CCSc1nnc(Cc2ccccc2)o1 [Compound 42, 2-phenylmethyl-5-(3,4,4-trifluoro-3-butenylthio)-1,3,4-oxadiazole]",38,50,98,98,100,99,97,0,30,100,100,100,,82,76,86,Some phytotoxicity (corn seedling): *; pest or weed control at 2.5 ppm (lesion nematode): 73%; pest or weed control at 5 ppm (stunt nematode; 672 h; Table 4a; rate 5 ppm; read-out: Percent Control): 33%
